Experimental data reported in patent publication US12404239B2, “Modulators of BCL6 as ligand directed degraders” (Celgene Corporation, priority 2022, dated 2025).

What follows are molecules tested against T1, BCL6 (Homo sapiens, UniProt P41182) (assay: BCL6_HiBiT degradation assay (2 h)). Settings: DHL-4_BCL6_HiBiT cells, read-out: YCon (% remaining maximal effect).
T1 construct: HiBiT-tag knocked into endogenous BCL6 locus using CRISPR; endogenous in cells; host or cells: DHL-4_BCL6_HiBiT cells (CRISPR knock-in)
Format: cell-based
How it was run: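 DHL-4 cells carrying CRISPR HiBiT knock-in at endogenous BCL6, treated 2 h at 37 °C with 10-point 3-fold dilutions from 1-10 μM. BCL6 level read by Nano-Glo HiBiT lytic luminescence normalized to DMSO; four-parameter fit gives degradation EC50 and Yconstant (% remaining at maximal effect).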

First: CN1C(=O)Cc2cc(Nc3nc(NC4CCN(c5ccc6c(C7CCC(=O)NC7=O)nn(C)c6c5)C(=O)C4)ncc3Cl)ccc21 (stereo not shown) [Example 126, 3-(6-(4-((5-chloro-4-((1-methyl-2-oxoindolin-5-yl)amino)pyrimidin-2-yl)amino)-2-oxopiperidin-1-yl)-1-methyl-1H-indazol-3-yl)piperidine-2,6-dione]
Second: CN1C(=O)Cc2cc(Nc3nc(N(C)C4CCN(c5ccc6c(C7CCC(=O)NC7=O)nn(C)c6c5)C(=O)C4)ncc3Cl)ccc21 (stereo not shown) [Example 127, 3-(6-(4-((5-chloro-4-((1-methyl-2-oxoindolin-5-yl)amino)pyrimidin-2-yl)(methyl)amino)-2-oxopiperidin-1-yl)-1-methyl-1H-indazol-3-yl)piperidine-2,6-dione]
The Percent BCL6 remaining at maximal degradation (Ycon) of the first is higher: 20 to 60% for the first, under 20% for the second.

First: C[C@@H]1CN(c2ncc(C#N)c(Nc3ccc4c(c3)CC(=O)N4C)n2)CC[C@H]1Nc1ccc2c(N3CCC(=O)NC3=O)nn(C)c2c1 [Example 132, 2-((3R,4R)-4-((3-(2,4-dioxotetrahydropyrimidin-1(2H)-yl)-1-methyl-1H-indazol-6-yl)amino)-3-methylpiperidin-1-yl)-4-((1-methyl-2-oxoindolin-5-yl)amino)pyrimidine-5-carbonitrile]
Second: CO[C@@H]1CN(c2ncc(C#N)c(Nc3ccc4c(c3)CC(=O)N4C)n2)CC[C@H]1Nc1ccc2c(N3CCC(=O)NC3=O)nn(C)c2c1 [Example 157, 2-((3R,4R)-4-((3-(2,4-dioxotetrahydropyrimidin-1(2H)-yl)-1-methyl-1H-indazol-6-yl)amino)-3-methoxypiperidin-1-yl)-4-((1-methyl-2-oxoindolin-5-yl)amino) pyrimidine-5-carbonitrile]
The Percent BCL6 remaining at maximal degradation (Ycon) of the first is lower: under 20% for the first, 20 to 60% for the second.

CN1C(=O)Cc2cc(Nc3nc(NC4CCN(c5ccc6c(N7CCC(=O)NC7=O)nn(C)c6c5)CC4)ncc3Cl)ccc21 [Example 133, 1-(6-(4-((5-chloro-4-((1-methyl-2-oxoindolin-5-yl)amino)pyrimidin-2-yl)amino)piperidin-1-yl)-1-methyl-1H-indazol-3-yl)dihydropyrimidine-2,4(1H,3H)-dione] and CN1C(=O)Cc2cc(Nc3nc(N4CCC(Nc5ccc6c(N7CCC(=O)NC7=O)nn(C)c6c5)CC4)ncc3Cl)ccc21 [Example 135, 1-(6-((1-(5-chloro-4-((1-methyl-2-oxoindolin-5-yl)amino)pyrimidin-2-yl)piperidin-4-yl)amino)-1-methyl-1H-indazol-3-yl)dihydropyrimidine-2,4(1H,3H)-dione] cannot be ordered by Percent BCL6 remaining at maximal degradation (Ycon): over 60% for the first, over 60% for the second.

Compared with CN1C(=O)Cc2cc(Nc3nc(N4CCC(c5ccc6c(N7CCC(=O)NC7=O)nn(C)c6c5)CC4)ncc3Cl)ccc21 [Example 134, 1-(6-(1-(5-chloro-4-((1-methyl-2-oxoindolin-5-yl)amino)pyrimidin-2-yl)piperidin-4-yl)-1-methyl-1H-indazol-3-yl)dihydropyrimidine-2,4(1H,3H)-dione], C[C@@H]1CN(c2ncc(Cl)c(Nc3ccc4c(c3)CC(=O)N4C)n2)CC[C@H]1Nc1ccc2c(N3CCC(=O)NC3=O)nn(C)c2c1 [Example 141, 1-(6-(((3R,4R)-1-(5-chloro-4-((1-methyl-2-oxoindolin-5-yl)amino)pyrimidin-2-yl)-3-methylpiperidin-4-yl)amino)-1-methyl-1H-indazol-3-yl)dihydropyrimidine-2,4(1H,3H)-dione] is lower in Percent BCL6 remaining at maximal degradation (Ycon): over 60% for the first, under 20% for the second.

Cn1nc(N2CCC(=O)NC2=O)c2ccc(NC3CCN(c4ncc(Cl)c(Nc5ccc6c(c5)CC(=O)N6CC(F)(F)F)n4)CC3)cc21 [Example 136, 1-(6-((1-(5-chloro-4-((2-oxo-1-(2,2,2-trifluoroethyl)indolin-5-yl)amino)pyrimidin-2-yl)piperidin-4-yl)amino)-1-methyl-1H-indazol-3-yl)dihydropyrimidine-2,4(1H,3H)-dione] and CCN1C(=O)Cc2cc(Nc3nc(N4CCC(Nc5ccc6c(N7CCC(=O)NC7=O)nn(C)c6c5)CC4)ncc3Cl)ccc21 [Example 144, 1-(6-((1-(5-chloro-4-((1-ethyl-2-oxoindolin-5-yl)amino)pyrimidin-2-yl)piperidin-4-yl)amino)-1-methyl-1H-indazol-3-yl)dihydropyrimidine-2,4(1H,3H)-dione] cannot be ordered by Percent BCL6 remaining at maximal degradation (Ycon): over 60% for the first, over 60% for the second.

First: Cn1nc(N2CCC(=O)NC2=O)c2ccc(NC3CCN(c4ncc(Cl)c(Nc5ccc6c(c5)CC(=O)N6CCO)n4)CC3)cc21 [Example 137, 1-(6-((1-(5-chloro-4-((1-(2-hydroxyethyl)-2-oxoindolin-5-yl)amino)pyrimidin-2-yl)piperidin-4-yl)amino)-1-methyl-1H-indazol-3-yl)dihydropyrimidine-2,4(1H,3H)-dione]
Second: CN1C(=O)Cc2cc(Nc3nc(N4CCC(Nc5ccc6c(N7CCC(=O)NC7=O)nn(C)c6c5)CC4)ncc3C#N)ccc21 [Example 138, 2-(4-((3-(2,4-dioxotetrahydropyrimidin-1(2H)-yl)-1-methyl-1H-indazol-6-yl)amino)piperidin-1-yl)-4-((1-methyl-2-oxoindolin-5-yl)amino)pyrimidine-5-carbonitrile]
The Percent BCL6 remaining at maximal degradation (Ycon) of the first is lower: 20 to 60% for the first, over 60% for the second.

C[C@@H]1CN(c2ncc(Cl)c(Nc3ccc4c(c3)CC(=O)N4C)n2)CC[C@H]1Nc1ccc2c(-n3ccc(=O)[nH]c3=O)nn(C)c2c1 [Example 139, 1-(6-(((3R,4R)-1-(5-chloro-4-((1-methyl-2-oxoindolin-5-yl)amino)pyrimidin-2-yl)-3-methylpiperidin-4-yl)amino)-1-methyl-1H-indazol-3-yl)pyrimidine-2,4(1H,3H)-dione] and C[C@@H]1CN(c2ncc(Cl)c(Nc3ccc4c(c3)CC(=O)N4C)n2)CC[C@H]1Nc1ccc2c(-n3cc(F)c(=O)[nH]c3=O)nn(C)c2c1 [Example 140, 1-(6-(((3R,4R)-1-(5-chloro-4-((1-methyl-2-oxoindolin-5-yl)amino)pyrimidin-2-yl)-3-methylpiperidin-4-yl)amino)-1-methyl-1H-indazol-3-yl)-5-fluoropyrimidine-2,4(1H,3H)-dione] cannot be ordered by Percent BCL6 remaining at maximal degradation (Ycon): under 20% for the first, under 20% for the second.

C[C@@H]1CN(c2ncc(Cl)c(Nc3ccc4c(c3F)CC(=O)N4C)n2)CC[C@H]1Nc1ccc2c(N3CCC(=O)NC3=O)nn(C)c2c1 [Example 142, 1-(6-(((3R,4R)-1-(5-chloro-4-((4-fluoro-1-methyl-2-oxoindolin-5-yl)amino)pyrimidin-2-yl)-3-methylpiperidin-4-yl)amino)-1-methyl-1H-indazol-3-yl)dihydropyrimidine-2,4(1H,3H)-dione] and C[C@@H]1CN(c2ncc(Cl)c(Nc3cnc4c(c3)CC(=O)N4C)n2)CC[C@H]1Nc1ccc2c(N3CCC(=O)NC3=O)nn(C)c2c1 [Example 143, 1-(6-(((3R,4R)-1-(5-chloro-4-((1-methyl-2-oxo-2,3-dihydro-1H-pyrrolo[2,3-b]pyridin-5-yl)amino)pyrimidin-2-yl)-3-methylpiperidin-4-yl)amino)-1-methyl-1H-indazol-3-yl)dihydropyrimidine-2,4(1H,3H)-dione] cannot be ordered by Percent BCL6 remaining at maximal degradation (Ycon): under 20% for the first, under 20% for the second.

CO[C@@H]1CN(c2ncc(Cl)c(Nc3ccc4c(c3)CC(=O)N4C)n2)CC[C@H]1Nc1ccc2c(C3CCC(=O)NC3=O)nn(C)c2c1 (stereo partly drawn) [Example 146, 3-(6-(((3R,4R)-1-(5-chloro-4-((1-methyl-2-oxoindolin-5-yl)amino)pyrimidin-2-yl)-3-methoxypiperidin-4-yl)amino)-1-methyl-1H-indazol-3-yl)piperidine-2,6-dione] and CO[C@@H]1CN(c2ncc(Cl)c(Nc3ccc4c(c3)CC(=O)N4C)n2)CC[C@H]1Nc1ccc2c(N3CCC(=O)NC3=O)nn(C)c2c1 [Example 156, 1-(6-(((3R,4R)-1-(5-chloro-4-((1-methyl-2-oxoindolin-5-yl)amino)pyrimidin-2-yl)-3-methoxypiperidin-4-yl)amino)-1-methyl-1H-indazol-3-yl) dihydropyrimidine-2,4(1H,3H)-dione] fall in the same range of Percent BCL6 remaining at maximal degradation (Ycon): 20 to 60% for the first, 20 to 60% for the second.

C[C@H]1CN(c2ccc3c(C4CCC(=O)NC4=O)nn(C)c3c2)C(=O)C[C@H]1N(C)c1ncc(Cl)c(Nc2ccc3c(c2)CC(=O)N3C)n1 (stereo partly drawn) [Example 149, 3-(6-((4R,5S)-4-((5-chloro-4-((1-methyl-2-oxoindolin-5-yl)amino)pyrimidin-2-yl)(methyl)amino)-5-methyl-2-oxopiperidin-1-yl)-1-methyl-1H-indazol-3-yl)piperidine-2,6-dione] and CO[C@@H]1CN(c2ncc(Cl)c(Nc3ccc4c(c3)CC(=O)N4C)n2)CC[C@H]1Nc1ccc2c(C3(C)CCC(=O)NC3=O)nn(C)c2c1 (stereo partly drawn) [Example 154, 3-(6-(((3R,4R)-1-(5-chloro-4-((1-methyl-2-oxoindolin-5-yl)amino)pyrimidin-2-yl)-3-methoxypiperidin-4-yl)amino)-1-methyl-1H-indazol-3-yl)-3-methylpiperidine-2,6-dione] fall in the same range of Percent BCL6 remaining at maximal degradation (Ycon): 20 to 60% for the first, 20 to 60% for the second.

CO[C@@H]1CN(c2ncc(C#N)c(Nc3ccc4c(c3)CC(=O)N4C)n2)CC[C@H]1Nc1ccc2c(C3(C)CCC(=O)NC3=O)nn(C)c2c1 (stereo partly drawn) [Example 155, 2-((3R,4R)-3-methoxy-4-((1-methyl-3-(3-methyl-2,6-dioxopiperidin-3-yl)-1H-indazol-6-yl)amino)piperidin-1-yl)-4-((1-methyl-2-oxoindolin-5-yl)amino) pyrimidine-5-carbonitrile] and CO[C@@H]1CN(c2nc(F)c(Cl)c(Nc3ccc4c(c3)CC(=O)N4C)n2)CC[C@H]1Nc1ccc2c(N3CCC(=O)NC3=O)nn(C)c2c1 [Example 158, 1-(6-(((3R,4R)-1-(5-chloro-4-fluoro-6-((1-methyl-2-oxoindolin-5-yl)amino)pyrimidin-2-yl)-3-methoxypiperidin-4-yl)amino)-1-methyl-1H-indazol-3-yl) dihydropyrimidine-2,4(1H,3H)-dione] fall in the same range of Percent BCL6 remaining at maximal degradation (Ycon): 20 to 60% for the first, 20 to 60% for the second.
